For assay [1], the target named is acyl-CoA: cholesterol acyltransferase (ACAT). The experiment in a line: In vitro ACAT inhibition: radiolabeled cholesterol oleate formed from radiolabeled oleic acid in rabbit intestinal microsomes. The settings on record: tissue preparation containing rabbit intestinal microsomes; concentration required to inhibit the activity of the enzyme by 50%. Format: biochemical. As for the experimental part:
The ability of representative compounds of the present invention to inhibit ACAT was measured using an in vitro test more fully described in F. J. Field and R. G. Salone, Biochemica et Biophysica 712:557-570 (1982). The test assesses the ability of a test compound to inhibit the acylation of cholesterol by oleic acid by measuring the amount of radiolabeled cholesterol oleate formed from radiolabeled oleic acid in a tissue preparation containing rabbit intestinal microsomes.
The data appear in Table 1 where they are expressed as ICso values; i.e., the concentration of test compound required to inhibit the activity of the enzyme by 50%.

For assay [2], the system named is male Sprague-Dawley rats. The experiment in a line: In vivo screen APCC: blood cholesterol in rats fed PCC diet overnight. Particulars: blood cholesterol versus vehicle (CMC/Tween); dosed at 4 PM, PCC diet with 1 % or 0.5% cholic acid overnight, sacrificed at 8 AM; dose not given. The source says: In one in vivo screen designated APCC, male Sprague-Dawley rats (200 to 225 g) were randomly divided into treatment groups and dosed at 4 PM with either vehicle (CMC/Tween) or suspensions of compounds in vehicle. The normal chow diet was then replaced with the PCC diet with either 1 % or 0.5% cholic acid, as indicated. The rats consumed this diet ad libitum during the night and were sacrificed at 8 AM to obtain blood samples for cholesterol analysis using standard procedures. Statistical differences between mean cholesterol values for the same vehicle were determined using analysis of variance followed by Fisher's least significant test.

Structures are written as SMILES.

Here are results for 5 molecules from patent publication EP0433662A2, “Acat inhibitors” (WARNER-LAMBERT COMPANY, priority 1989, dated 1991).

The term IC50 denotes the point on the concentration scale where inhibition reaches its midpoint. In assay [1], `CC(C)c1cccc(C(C)C)c1NC(=O)CC(=O)NC(c1ccccc1)c1ccccc1` [N-[2,6-bis(1-methylethyl)-phenyl-N'-(diphenylmethyl)-propanediamide] came in with an IC50 of 490 nM. The “% Change (mg/dl)” value in assay [2] is -20%.
Turning to `CC(C)c1cccc(C(C)C)c1NC(=O)CC(=O)N(C(C)C)C(c1ccccc1)c1ccccc1` [N'-[2,6-bis(1-methylethyl)-phenyl]-N-(diphenylmethyl)-N-(1-methylethyl)propanediamide], in assay [1], the IC50 is 20 nM. In assay [2], the “% Change (mg/dl)” value was -41%.
In the same order, the values of `CC(C)c1cccc(C(C)C)c1NC(=O)CC(=O)NCC1(c2ccccc2)CCCC1` [N-[2,6-bis(1-methylethyl)-phenyl]-N'-(1-phenylcyclo-pentyl)methylpropanediamide] are 990 nM and “+7%”.
The molecule `CC(C)c1cccc(C(C)C)c1NC(=O)CC(=O)N(Cc1ccccc1)Cc1ccccc1` [N'-[2,6-bis(1-methylethyl)-phenyl]-N,N-bis(phenylmethyl)-propanediamide] had an IC50 in assay [1] of 13 nM. For the same molecule, in assay [2], the “% Change (mg/dl)” value is reported as -42%.
With `CC(C)c1cccc(C(C)C)c1NC(=O)CC(=O)NCC(c1ccccc1)c1ccccc1` [N-[2,6-Bis(1-methylethyl)phenyl]-N'-(2,2-diphenylethyl)propanediamide], 770 nM corresponded to half-maximal inhibition in assay [1] (IC50).
